# Several values for one entry are separate records, joined by “and”; a condition that tells them apart may be missing. Identical values can stand only once.
# What was measured:
# DC-SIGN S-ECD = biological target: T1, DC-SIGN S-ECD (Homo sapiens, UniProt Q9NNX6); assay: SPR direct interaction assay on oriented DC-SIGN S-ECD surface; format: binding; details: for Kd: SPR direct interaction, oriented tetrameric DC-SIGN ECD surface, apparent Kd, read-out: Kdapp
# T1 construct: The ECD of DC-SIGN (residues 66–404) was overexpressed and purified as previously described; made in house
# T1 sequence (Q9NNX6 66-404): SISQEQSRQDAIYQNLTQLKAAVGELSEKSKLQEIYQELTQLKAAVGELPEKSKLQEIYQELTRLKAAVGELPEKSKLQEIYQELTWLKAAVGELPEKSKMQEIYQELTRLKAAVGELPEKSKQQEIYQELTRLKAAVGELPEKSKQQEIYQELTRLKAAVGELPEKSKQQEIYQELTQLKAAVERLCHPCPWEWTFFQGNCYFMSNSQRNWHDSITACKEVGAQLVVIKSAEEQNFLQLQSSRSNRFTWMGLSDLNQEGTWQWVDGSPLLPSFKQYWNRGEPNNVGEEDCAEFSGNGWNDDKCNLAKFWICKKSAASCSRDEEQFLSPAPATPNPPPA
# Procedure: The affinity of the clusters for the extracellular domain (ECD) of the DC-SIGN receptor (DC-SIGN ECD) was estimated via surface plasmon resonance (SPR) assays (Tabarani et al., [2009]). The apparent Kd was calculated in direct interaction mode using a surface functionalized in an oriented manner with DC-SIGN ECD. In this assay, tetrameric DC-SIGN ECD is attached to the surface of the sensor chip via the N-terminus of its neck oligomerization domain, thus presenting its four carbohydrate recognition domains toward the solvent, realistically mimicking the presentation of the receptor on cell surface (Porkolab et al., [2019]). For some of the low affinity ligands, in the mM range, it was not possible to determine their affinity with this assay, and therefore a competition experiment was performed providing IC50 values (Timpano et al., [2008]) (Figure 3A). […] When comparing equivalent clusters, the α1,2-di-mannoside (B series) bound with the highest affinity (Figure 3A). […] A potential explanation for this effect could be that the spacing of clusters is more important for the larger tri-mannosides.
# The direct interaction experiments were executed on a T200 Biacore with a CM3 series S sensor chip. Contrary to the competition assay described above, in this test, DC-SIGN ECD used harbors a StreptagII in its N-terminus (DC-SIGN S-ECD) to allow its capture and functionalization onto the surface in an oriented manner. Flow cells were functionalized as previously described (Porkolab et al., [2019]). Briefly, after EDC/NHS activation, flow cells were functionalized with streptactin protein in a first step. Flow cell 1 was used as control, while other flow cells were, in a second round of activation, functionalized with 100 μg/mL of a DC-SIGN S-ECD up to a final density ranging between 2,500 and 3,000 RU, via tag specific capture and linkage by amine coupling chemistry simultaneously. The compounds were injected in running buffer of 25 mM Tris pH 8, 150 mM NaCl, 4 mM CaCl2, 0.05% Tween 20 onto the surface at increasing concentrations with a flow rate of 30 μL/min. The ligand titration led to the determination of an apparent Kd value. The data was analyzed in BIAcore BIAevaluation software for direct interaction 1:1 calculation assuming that the Kd will reflect the affinity of the ligands (glycoclusters) for the DC-SIGN oriented surface used as a whole.
# moDCs = assay: Internalization of biotinylated hexavalent clusters by moDCs (flow cytometry); format: cell-based, human
# Procedure: For the internalization, the moDCs were incubated with clusters b6, c6, d6, and e6 for 1 h at 4°C, where after unbound ligands were washed away with ice-cold medium. Warm medium was added to the moDCs, and samples were taken at the indicated time points and put on ice. Upon staining the moDCs with fluorophore-conjugated streptavidin, we could measure the signal loss of the membrane via flow cytometry. To exclude ligand-receptor dissociation before internalization, the moDCs were fixed under gentle conditions, hereby inhibiting receptor-mediated endocytosis. On fixed moDCs the clusters remained at the surface, as no signal loss could be detected (Supplementary Figure 1D). […] The di-mannoside clusters (b6, c6, and d6) were internalized relatively fast, with a 50% uptake within 5 min (Figure 5B). The tri-mannoside cluster e6 however remained longer at the membrane surface and only a 25% uptake was seen after 30 min. Similar results were seen using a pH-sensitive fluorophore. In acidic environments, such as the endosomes and lysosomes, the fluorescence of this dye increases. Pre-complexed clusters mirrored the accelerated uptake of the di-mannoside clusters over the e6 cluster (Supplementary Figure 1E). Although the DC-SIGN mediated uptake mechanism is known (Cambi et al., [2009]), the initiation trigger for endocytosis upon DC-SIGN-ligand binding remains unclear. Recognition of the di-mannoside clusters could induce signaling leading to accelerated uptake, whereas the tri-mannoside cluster could trigger a different signaling pathway. Nonetheless, the clusters harboring the smaller mannosides are preferred. Although the binding affinity of the clusters ranged from 0.9 to 6.6 μM, the di-mannosides induce more rapid DC-SIGN internalization over the tri-mannosides, and can thus increase intracellular peptide concentrations more efficiently for further antigen processing and presentation.
# Immature day 5 moDCs were harvested and washed with cold HBSS (Thermo Fischer), after which half of the moDCs were gently fixed for 20 min at RT with 1% PFA in PBS. Afterwards, 20 μM of the different biotinylated mannose-clusters in cold HBSS were added. The moDCs were incubated for 1 h on ice, and washed in cold HBSS. Subsequently, warm HBSS was added to the cells, and cells were incubated at 37°C in a shaking heating block. At the indicated time points, a sample of the cells was taken and put on ice. After the last time point, the cells were stained with Streptavidin-Alexa647 (Thermo Fisher), measured using flow cytometry (CyAn™ ADP with Summit™ Software), and further analyzed using FlowJo v10. The same procedure was used for internalization with pHrodo^TM Red Avidin (Thermo Fischer). The different biotinylated mannose-clusters were however incubated with pHrodo-Avidin (ratio 2:1) for 15 min at 37°C, prior to moDC exposure. The fluorescence upon internalization was measured using flow cytometry (BD LSRFortessa™ X-20 with FACSDiva Software), and further analyzed using FlowJo v10.
SMILES,Kd (DC-SIGN S-ECD),further results
CC(=O)N[C@@H](CCCCn1cc(CO[C@H]2O[C@H](CO)[C@@H](O)[C@H](O)[C@@H]2O[C@H]2O[C@H](CO)[C@@H](O)[C@H](O)[C@@H]2O)nn1)C(=O)NCC(=O)N[C@@H](CCCCn1cc(CO[C@H]2O[C@H](CO)[C@@H](O)[C@H](O)[C@@H]2O[C@H]2O[C@H](CO)[C@@H](O)[C@H](O)[C@@H]2O)nn1)C(=O)NCC(=O)N[C@@H](CCCCn1cc(CO[C@H]2O[C@H](CO)[C@@H](O)[C@H](O)[C@@H]2O[C@H]2O[C@H](CO)[C@@H](O)[C@H](O)[C@@H]2O)nn1)C(=O)NCC(=O)N[C@@H](CCCCN)C(N)=O [B3],19500 ± 500 nM,–
CC[C@H](NC(=O)[C@H](CC(=O)O)NC(=O)[C@H](CC(C)C)NC(=O)[C@H](CCCNC(=N)N)NC(=O)[C@H](CCC(N)=O)NC(=O)[C@H](C)NC(=O)[C@H](CCC(=O)O)NC(=O)[C@@H](NC(=O)[C@H](Cc1c[nH]c2ccccc12)NC(=O)[C@H](CCC(=O)O)NC(=O)[C@@H]1CCCN1C(=O)[C@H](Cc1ccc(O)cc1)NC(=O)[C@H](CC(C)C)NC(=O)[C@H](CCC(N)=O)NC(=O)[C@H](CCCNC(=N)N)NC(=O)[C@H](CC(N)=O)NC(=O)[C@H](C)NC(=O)[C@@H](NC(=O)[C@@H](NC(=O)[C@@H]1CCCN1C(=O)CNC(=O)[C@@H]1CCCN1C(=O)[C@H](CCC(=O)O)NC(=O)[C@H](CC(C)C)NC(=O)[C@H](Cc1ccc(O)cc1)NC(=O)[C@@H](NC(=O)[C@H](Cc1c[nH]cn1)NC(=O)[C@@H](NC(=O)[C@@H](NC(=O)[C@H](CCCCn1cc(CCC(=O)NCCCC[C@H](NC(=O)CNC(=O)[C@H](CCCCn2cc(CO[C@H]3O[C@H](CO)[C@@H](O)[C@H](O)[C@@H]3O[C@H]3O[C@H](CO)[C@@H](O)[C@H](O)[C@@H]3O)nn2)NC(=O)[C@H](CCCCn2cc(CO[C@H]3O[C@H](CO)[C@@H](O)[C@H](O)[C@@H]3O[C@H]3O[C@H](CO)[C@@H](O)[C@H](O)[C@@H]3O)nn2)NC(=O)[C@H](CCCCn2cc(CO[C@H]3O[C@H](CO)[C@@H](O)[C@H](O)[C@@H]3O[C@H]3O[C@H](CO)[C@@H](O)[C@H](O)[C@@H]3O)nn2)NC(=O)[C@H](CCCCn2cc(CO[C@H]3O[C@H](CO)[C@@H](O)[C@H](O)[C@@H]3O[C@H]3O[C@H](CO)[C@@H](O)[C@H](O)[C@@H]3O)nn2)NC(=O)[C@H](CCCCn2cc(CO[C@H]3O[C@H](CO)[C@@H](O)[C@H](O)[C@@H]3O[C@H]3O[C@H](CO)[C@@H](O)[C@H](O)[C@@H]3O)nn2)NC(=O)[C@H](CCCCn2cc(CO[C@H]3O[C@H](CO)[C@@H](O)[C@H](O)[C@@H]3O[C@H]3O[C@H](CO)[C@@H](O)[C@H](O)[C@@H]3O)nn2)NC(C)=O)C(N)=O)nn1)NC(C)=O)C(C)C)[C@@H](C)O)[C@@H](C)O)C(C)C)[C@@H](C)O)[C@@H](C)O)C(=O)N[C@@H](Cc1c[nH]c2ccccc12)C(=O)N[C@@H](CCCNC(=N)N)C(=O)NCC(=O)N[C@@H](CCCCN)C(N)=O [B6-gp100],–,decrease of DC-SIGN affinity on conjugation to gp100 or gp100-TLR7L (factor) (DC-SIGN S-ECD; Kd-app of conjugate vs unconjugated cluster): about 10
CC(=O)N[C@@H](CCCCn1cc(CO[C@H]2O[C@H](CO)[C@@H](O)[C@H](O)[C@@H]2O[C@H]2O[C@H](CO)[C@@H](O)[C@H](O)[C@@H]2O)nn1)C(=O)N[C@@H](CCCCn1cc(CO[C@H]2O[C@H](CO)[C@@H](O)[C@H](O)[C@@H]2O[C@H]2O[C@H](CO)[C@@H](O)[C@H](O)[C@@H]2O)nn1)C(=O)N[C@@H](CCCCn1cc(CO[C@H]2O[C@H](CO)[C@@H](O)[C@H](O)[C@@H]2O[C@H]2O[C@H](CO)[C@@H](O)[C@H](O)[C@@H]2O)nn1)C(=O)N[C@@H](CCCCn1cc(CO[C@H]2O[C@H](CO)[C@@H](O)[C@H](O)[C@@H]2O[C@H]2O[C@H](CO)[C@@H](O)[C@H](O)[C@@H]2O)nn1)C(=O)N[C@@H](CCCCn1cc(CO[C@H]2O[C@H](CO)[C@@H](O)[C@H](O)[C@@H]2O[C@H]2O[C@H](CO)[C@@H](O)[C@H](O)[C@@H]2O)nn1)C(=O)N[C@@H](CCCCn1cc(CO[C@H]2O[C@H](CO)[C@@H](O)[C@H](O)[C@@H]2O[C@H]2O[C@H](CO)[C@@H](O)[C@H](O)[C@@H]2O)nn1)C(=O)NCC(=O)N[C@@H](CCCCN)C(N)=O [B6],950 nM and 946 nM and 900 nM,"internalization by moDCs (loss of surface streptavidin signal) (moDCs; 20 μM cluster, live moDCs): rapidly internalized; internalization by moDCs (pHrodo-avidin fluorescence increase) (moDCs; clusters pre-complexed with pH-sensitive dye): internalized rapidly; uptake by immature moDCs (moDCs; within 5 min at 37°C, 20 μM cluster): 50%"
CC(=O)N[C@@H](CCCCn1cc(CO[C@H]2O[C@H](CO[C@H]3O[C@H](CO)[C@@H](O)[C@H](O)[C@@H]3O)[C@@H](O)[C@H](O)[C@@H]2O)nn1)C(=O)NCC(=O)N[C@@H](CCCCn1cc(CO[C@H]2O[C@H](CO[C@H]3O[C@H](CO)[C@@H](O)[C@H](O)[C@@H]3O)[C@@H](O)[C@H](O)[C@@H]2O)nn1)C(=O)NCC(=O)N[C@@H](CCCCn1cc(CO[C@H]2O[C@H](CO[C@H]3O[C@H](CO)[C@@H](O)[C@H](O)[C@@H]3O)[C@@H](O)[C@H](O)[C@@H]2O)nn1)C(=O)NCC(=O)N[C@@H](CCCCN)C(N)=O [D3],48700 ± 2570 nM,–
CC(=O)N[C@@H](CCCCn1cc(CO[C@H]2O[C@H](CO[C@H]3O[C@H](CO)[C@@H](O)[C@H](O)[C@@H]3O)[C@@H](O)[C@H](O[C@H]3O[C@H](CO)[C@@H](O)[C@H](O)[C@@H]3O)[C@@H]2O)nn1)C(=O)NCC(=O)N[C@@H](CCCCn1cc(CO[C@H]2O[C@H](CO[C@H]3O[C@H](CO)[C@@H](O)[C@H](O)[C@@H]3O)[C@@H](O)[C@H](O[C@H]3O[C@H](CO)[C@@H](O)[C@H](O)[C@@H]3O)[C@@H]2O)nn1)C(=O)NCC(=O)N[C@@H](CCCCn1cc(CO[C@H]2O[C@H](CO[C@H]3O[C@H](CO)[C@@H](O)[C@H](O)[C@@H]3O)[C@@H](O)[C@H](O[C@H]3O[C@H](CO)[C@@H](O)[C@H](O)[C@@H]3O)[C@@H]2O)nn1)C(=O)NCC(=O)N[C@@H](CCCCN)C(N)=O [E3],2440 nM,–

# Reference: article PMC6787163, “Systematic Dual Targeting of Dendritic Cell C-Type Lectin Receptor DC-SIGN and TLR7 Using a Trifunctional Mannosylated Antigen” (Frontiers in Chemistry, 2019)
